Data from US11655238B2 (priority 2018, dated 2023).
Converted amounts (≈) assume the structure as drawn. Read-outs that look alike come from different tables or passages of the source.

Tests used:
Format in all cases: cell-based
[1] = system: Mycobacterium smegmatis strain (mc2155); assay: Resazurin microplate MIC on Mycobacterium smegmatis; settings: for MIC: Mycolicibacterium smegmatis, MC2155, 48 h
[2] = system: Mycobacterium bovis BCG strain; assay: microbe, parasite or virus in culture; settings: for MIC: Mycobacterium tuberculosis variant bovis BCG, BCG, 168 h, read-out: MIC (μg/mL) Mycobacterium bovis BCG, BCG strain, 7H9 medium, 37° C., 168 hours, resazurin; for inhibitory effect on BCG strain (summary of Table 2): in words
[3] = system: Mycobacterium tuberculosis H37Ra strain; assay: microbe, parasite or virus in culture; settings: for MIC: Mycobacterium tuberculosis, H37RA, 168 h, read-out: MIC (μg/mL) Mycobacterium tuberculosis H37Ra
[4] = mc2155, 7H9 medium, 37° C., 48 hours, resazurin, read-out: MIC (μg/mL) Mycobacterium smegmatis

SMILES | MIC [1, 4] [µg/mL] | MIC [2] [µg/mL] | MIC [3] [µg/mL] | inhibitory effect on smegmatis strain (summary of Table 2) [1] | inhibitory effect on BCG strain (summary of Table 2) [2] | inhibitory effect on H37Ra strain (summary of Table 2) [3] | MIC ([1]; read-out: MIC (μg/mL) Mycobacterium smegmatis, mc2155, 7H9 medium, 37° C., 48 hours, resazurin) [µg/mL]
Cc1c(CNC(=O)NC23CC4CC(CC(C4)C2)C3)nn(-c2ccc(Cl)cc2Cl)c1-c1ccc(Cl)cc1 [Compound 10, 1-((3s,5s,7s)-adamantan-1-yl)-3-((5-(4-chlorophenyl)-1-(2,4-dichlorophenyl)-4-methyl-1H-pyrazol-3-yl)methyl)urea] | 171 (≈ 314 µM) | > 171 | > 171 |  |  |  | 
Cc1c(CNC(=O)NCC23CC4CC(CC(C4)C2)C3)nn(-c2ccc(Cl)cc2Cl)c1-c1ccc(Cl)cc1 [Compound 11, 1-(((3r,5r,7r)-adamantan-1-yl)-methyl)-3-((5-(4-chlorophenyl)-1-(2,4-dichlorophenyl)-4-methyl-1H-pyrazol-3-yl)-methyl)urea] | 134 (≈ 240 µM) | > 134 | 33.5 (≈ 60.1 µM) |  |  |  | 
Cc1c(CNC(=O)NCCC23CC4CC(CC(C4)C2)C3)nn(-c2ccc(Cl)cc2Cl)c1-c1ccc(Cl)cc1 [Compound 12, 1-(2-((3r,5r,7r)-adamantan-1-yl)ethyl)-3-((5-(4-chloro-phenyl)-1-(2,4-dichlorophenyl)-4-methyl-1H-pyrazol-3-yl)-methyl)urea] | 15.2 (≈ 26.6 µM) | > 122 | 122 (≈ 213 µM) |  |  |  | 
Cc1c(C(=O)NCCNC2C3CC4CC(C3)CC2C4)nn(-c2ccc(Cl)cc2Cl)c1-c1ccc(Cl)cc1 (stereo not drawn) [Compound 17, N-(2-(((1r,3r,5r,7r)-adamantan-2-yl)amino)ethyl)-5-(4-chloro-phenyl)-1-(2,4-dichlorophenyl)-4-methyl-1H-pyrazole-3-carboxamide] | 11.9 (≈ 21.3 µM) | 5.95 (≈ 10.7 µM) | 5.95 (≈ 10.7 µM) | good inhibitory effects | good inhibitory effects | good inhibitory effects | 
Cc1c(C(=O)NCCCNC2C3CC4CC(C3)CC2C4)nn(-c2ccc(Cl)cc2Cl)c1-c1ccc(Cl)cc1 (stereo not drawn) [Compound 18, N-(3-(((1r,3r,5r,7r)-adamantan-2-yl)amino)propyl)-5-(4-chlorophenyl)-1-(2,4-dichlorophenyl)-4-methyl-1H-pyrazole-3-carboxamide] | 24.4 (≈ 42.6 µM) | 6.1 (≈ 10.7 µM) | 6.1 (≈ 10.7 µM) | good inhibitory effects | good inhibitory effects | good inhibitory effects | 
Cc1c(C(=O)NCCCCNC2C3CC4CC(C3)CC2C4)nn(-c2ccc(Cl)cc2Cl)c1-c1ccc(Cl)cc1 (stereo not drawn) [Compound 19, N-(4-(((1r,3r,5r,7r)-adamantan-2-yl)amino)butyl)-5-(4-chlorophenyl)-1-(2,4-dichlorophenyl)-4-methyl-1H-pyrazole-3-carboxamide] | 13.4 (≈ 22.9 µM) | 6.71 (≈ 11.5 µM) | 6.71 (≈ 11.5 µM) | good inhibitory effects | good inhibitory effects | good inhibitory effects | 
Cc1c(C(=O)NCCNC23CC4CC(C)(CC(C)(C4)C2)C3)nn(-c2ccc(Cl)cc2Cl)c1-c1ccc(Cl)cc1 [Compound 23, (5-(4-chlorophenyl)-1-(2,4-dichlorophenyl)-N-(2-(((1r,3R,5S,7r)-3,5-dimethyl-adamantan-1-yl)amino)ethyl)-4-methyl-1H-pyrazole-3-carboxamide] | 7.32 (≈ 12.5 µM) | 3.66 (≈ 6.25 µM) | 1.83 (≈ 3.12 µM) | good inhibitory effects | good inhibitory effects | good inhibitory effects | 
Cc1c(C(=O)N(C)CCNC2C3CC4CC(C3)CC2C4)nn(-c2ccc(Cl)cc2Cl)c1-c1ccc(Cl)cc1 (stereo not drawn) [Compound 74, N-(2-(((1r,3r,5r,7r)-adamantan-2-yl)amino)ethyl)-5-(4-chlorophenyl)-1-(2,4-dichlorophenyl)-N,4-dimethyl-1H-pyrazole-3-carboxamide] | 13.4 (≈ 23.4 µM) | 3.35 (≈ 5.86 µM) | 3.35 (≈ 5.86 µM) | good inhibitory effects | good inhibitory effects | good inhibitory effects | 
Cc1c(C(=O)NCCNC2C3CC4CC(C3)CC2C4)nn(-c2ccc(F)cc2F)c1-c1ccc(Cl)cc1 (stereo not drawn) [Compound 76, N-(2-(((1r,3r,5r,7r)-adamantan-2-yl)amino)ethyl)-5-(4-chloro-phenyl)-1-(2,4-difluorophenyl)-4-methyl-1H-pyrazole-3-carboxamide] | 7.32 (≈ 13.9 µM) | 3.66 (≈ 6.97 µM) | 1.83 (≈ 3.49 µM) | good inhibitory effects | good inhibitory effects | good inhibitory effects | 
Cc1ccc(-n2nc(C(=O)NCCNC3C4CC5CC(C4)CC3C5)c(C)c2-c2ccc(Cl)cc2)c(C)c1 (stereo not drawn) [Compound 77, N-(2-(((1r,3r,5r,7r)-adamantan-2-yl)amino)ethyl-5-(4-chloro-phenyl)-1-(2,4-dimethylphenyl)-4-methyl-1H-pyrazole-3-carboxamide] | 10.4 (≈ 20 µM) | 5.18 (≈ 10 µM) | 2.59 (≈ 5.01 µM) | good inhibitory effects | good inhibitory effects | good inhibitory effects | 
Cc1c(C(=O)NCCNC23CC4CC(CC(C4)C2)C3)nn(-c2ccc(Cl)cc2Cl)c1-c1ccc(Cl)cc1 [Compound 163, N-(2-(((3s,5s,7s)-adamantan-1-yl)amino)ethyl)-5-(4-chloro-phenyl)-1-(2,4-dichloro-phenyl)-4-methyl-1H-pyrazole-3-carboxamide] | 14.6 (≈ 26.2 µM) | 3.66 (≈ 6.56 µM) | 3.66 (≈ 6.56 µM) | good inhibitory effects | good inhibitory effects | good inhibitory effects | 
Cc1c(CNCCCNC2C3CC4CC(C3)CC2C4)nn(-c2ccc(Cl)cc2Cl)c1-c1ccc(Cl)cc1 (stereo not drawn) [Compound 164, N1-((1r,3r,5r,7r)-adamantan-2-yl)-N3-((5-(4-chloro-phenyl)-1-(2,4-dichloro-phenyl)-4-methyl-1H-pyrazol-3-yl)methyl)propane-1,3-diamine] | > 207 | 3.24 (≈ 5.81 µM) | 3.24 (≈ 5.81 µM) |  |  |  | 
Cc1c(CN(C)CCNC2C3CC4CC(C3)CC2C4)nn(-c2ccc(Cl)cc2Cl)c1-c1ccc(Cl)cc1 (stereo not drawn) [Compound 165, N1-((1r,3r,5r,7r)-adamantan-2-yl)-N2-((5-(4-chloro-phenyl)-1-(2,4-dichloro-phenyl)-4-methyl-1H-pyrazol-3-yl)methyl)-N2-methylethane-1,2-diamine] | 57.9 (≈ 104 µM) | 3.62 (≈ 6.49 µM) | 1.81 (≈ 3.24 µM) |  |  |  | 
Cc1c(CNCCNC2C3CC4CC(C3)CC2C4)nn(-c2ccc(Cl)cc2Cl)c1-c1ccc(Cl)cc1 (stereo not drawn) [Compound 166, N1-((1r,3r,5r,7r)-adamantan-2-yl)-N2-((5-(4-chlorophenyl)-1-(2,4-dichlorophenyl)-4-methyl-1H-pyrazol-3-yl)-methyl)ethane-1,2-diamine] | 7.62 (≈ 14 µM) | 7.62 (≈ 14 µM) | 3.81 (≈ 7 µM) |  |  |  | 
Cc1c(CNCCCCNC2C3CC4CC(C3)CC2C4)nn(-c2ccc(Cl)cc2Cl)c1-c1ccc(Cl)cc1 (stereo not drawn) [Compound 167, N1-((1r,3r,5r,7r)-adamantan-2-yl)-N4-((5-(4-chlorophenyl)-1-(2,4-dichlorophenyl)-4-methyl-1H-pyrazol-3-yl)-methyl)butane-1,4-diamine] | 2.1 (≈ 3.67 µM) | 1.05 (≈ 1.84 µM) | 2.1 (≈ 3.67 µM) |  |  |  | 
Cc1c(CNS(=O)(=O)CCNC23CC4CC(C)(CC(C)(C4)C2)C3)nn(-c2ccc(Cl)cc2Cl)c1-c1ccc(Cl)cc1 [Compound 168, N-((5-(4-chlorophenyl)-1-(2,4-dichlorophenyl)-4-methyl-1H-pyrazol-3-yl)methyl)-2-(((1r,3R,5S,7r)-3,5-dimethyl-adamantan-1-yl)amino)ethane-1-sulfonamide] | 21.3 (≈ 33.5 µM) | 21.3 (≈ 33.5 µM) | 10.7 (≈ 16.8 µM) |  |  |  | 
Cc1c(CNC(=O)CNC23CC4CC(C)(CC(C)(C4)C2)C3)nn(-c2ccc(Cl)cc2Cl)c1-c1ccc(Cl)cc1 [Compound 169, N-((5-(4-chlorophenyl)-1-(2,4-dichlorophenyl)-4-methyl-1H-pyrazol-3-yl)methyl)-2-(((1r,3R,5S,7r)-3,5-dimethyl-adamantan-1-yl)amino)-acetamide] | 0.95 (≈ 1.62 µM) | 1.91 (≈ 3.26 µM) | 1.91 (≈ 3.26 µM) |  |  |  | 
Cc1c(C(=O)N2CCN(C(=O)C34CC5CC(CC(C5)C3)C4)CC2)nn(-c2ccc(Cl)cc2Cl)c1-c1ccc(Cl)cc1 [Compound 170, ((3r,5r,7r)-adamantan-1-yl)(4-(5-(4-chlorophenyl)-1-(2,4-dichlorophenyl)-4-methyl-1H-pyrazole-3-carbonyl)piperazin-1-yl)methanone] | > 293 | > 293 | > 293 |  |  |  | 
Cc1c(C(=O)OC2CC3CCC2(C)C3(C)C)nn(-c2ccc(Cl)cc2Cl)c1-c1ccc(Cl)cc1 (stereo not drawn) [Compound 171, 1,7,7-trimethylbicyclo[2.2.1]-heptan-2-yl 5-(4-chlorophenyl)-1-(2,4-dichlorophenyl)-4-methyl-1H-pyrazole-3-carbox-ylate] | 200 (≈ 386 µM) | > 200 | > 200 |  |  |  | 
Cc1c(C(=O)O[C@H]2C[C@@H]3CC[C@@]2(C)C3(C)C)nn(-c2ccc(Cl)cc2Cl)c1-c1ccc(Cl)cc1 [Compound 172, (1S,2S,4S)-1,7,7-trimethyl-bicyclo[2.2.1]heptan-2-yl 5-(4-chlorophenyl)-1-(2,4-dichlorophenyl)-4-methyl-1H-pyrazole-3-carboxylate] |  | > 338 | 84.5 (≈ 163 µM) |  |  |  | > 338
